Test results from patent publication US9475766B2, “Substituted aromatic sulfur compounds and methods of their use” (Cephalon, Inc., priority 2011, dated 2016).

How the values were obtained:
Assay type in all cases: cell-based
[1] = system: HT29 colon cancer cell line; experiment: Cell survival and adhesion assay (luciferase), HT29; conditions: HT-29, 5 hours, HT29 cells overlayed onto human mesothelial cell monolayers, read-out: relative reduction in Luciferase activity, HT29 10 μM
Method: (§1) SU86 is a pancreatic cancer cell line. HT29 is a colon cancer cell line. BxPC3 is a pancreatic cell line. A2780 is an ovarian cancer cell line.
(§2) BxPc-3 and Su.86.86 pancreatic and HT-29 colon and A2780 ovarian cancer cell lines were purchased from ATCC and cultured in DMEM supplemented with 10% fetal bovine serum, glutamine, penicillin, and streptomycin. All cells were cultured at 37° C. in a humidified incubator in a 5% CO2 atmosphere. The cancer cell lines were transduced with a retrovirus containing pLuc-puro, a constitutive luciferase reporter and selected in […] media. Transient transfection of a full-length human c-FLIP construct in the vector pcDNA3 was performed as previously described. Scaife et al. Cancer Research 2002, 62: 6870-78.
(§3) Pancreatic cancer cell cultures (BxPc-3 and Su.86.86) and colon cancer (HT-29) and ovarian cancer (A2780) cells that were stably transfected with a firefly luciferase construct were transiently suspended with trypsin-PBS. 10^5 cells were overlayed onto confluent monolayers of human mesothelial cells in 96-well plates while simultaneously adding various concentrations of compounds of the invention or DMSO for 5 hours. The non-adherent cells were carefully washed away from the wells twice with 100 μl/well of blocking buffer (1% BSA in PBS) and twice again with ice-cold PBS. Adherent and surviving cells were detected by luciferase activity in a luminometer as follows. The cells were lysed in 0.1% TritonX-100, 25 mM Gly-Gly (7.8), MgSO4, 4 mM EGTA, 1 mM DTT. The total protein concentration was normalized with lysis buffer. 50 μl of cell lysate was added per well of a 96-well microtiter plate. 50 μl of luciferin substrate (Promega) was added per well and then the light output determined in a luminometer.

[2] = system: BxPC3 pancreatic cell line; experiment: Cell survival and adhesion assay (luciferase), BxPC3; conditions: BXPC-3, 5 hours, BxPC3 cells overlayed onto human mesothelial cell monolayers, read-out: relative reduction in Luciferase activity, BxPC3 10 μM
Method: as §1, §2, §3

[3] = system: SU86 pancreatic cancer cell line (Su.86.86); experiment: Cell survival and adhesion assay (luciferase), SU86; conditions: 5 hours, SU86 cells overlayed onto human mesothelial cell monolayers, read-out: relative reduction in Luciferase activity, SU86 10 μM
Method: as §1, §2, §3

[4] = system: A2780 ovarian cancer cell line; experiment: Cell survival and adhesion assay (luciferase), A2780; conditions: 5 hours, A2780 cells overlayed onto human mesothelial cell monolayers, read-out: relative reduction in Luciferase activity, A2780 10 μM
Method: as §1, §2, §3

Row | Compound | inhibition at 10 µM [1] [%] | inhibition at 10 µM [2] [%] | inhibition at 10 µM [3] [%] | inhibition at 10 µM [4] [%]
1 | CC(C)(C)c1cccc(S(=O)(=O)/C=C/C#N)c1 [Example 54, (E)-3-(3-tert-Butyl-benzenesulfonyl)-acrylonitrile] | < 10 | > 85 | > 85 | > 85
2 | CC(C)(C(=O)NCc1ccc(Cl)cc1)c1ccc(S(=O)(=O)/C=C/C#N)cc1 [Example 14, N-(4-Chloro-benzyl)-2-[4-((E)-2-cyano-ethenesulfonyl)-phenyl]-isobutyramide] | 10 to 50 | 50 to 85 | 50 to 85 | > 85
3 | CC(C)(C(=O)NCc1cccs1)c1ccc(S(=O)(=O)/C=C/C#N)cc1 [Example 15, 2-[4-((E)-2-Cyano-ethenesulfonyl)-phenyl]-N-thiophen-2-ylmethyl-isobutyramide] | < 10 | 50 to 85 | 50 to 85 | > 85
4 | C#CCCNC(=O)C(C)(C)c1ccc(S(=O)(=O)/C=C/C#N)cc1 [Example 80, N-But-3-ynyl-2-[4-((E)-2-cyano-ethenesulfonyl)-phenyl]-isobutyramide] | > 85 | 50 to 85 | 10 to 50 | 50 to 85
5 | CC(C)(C(=O)O)c1cccc(S(=O)(=O)/C=C/C#N)c1 [Example 2, 2-[3-((E)-2-Cyano-ethenesulfonyl)-phenyl]-2-methyl-propionic acid] | 10 to 50 | 10 to 50 | < 10 | < 10
6 | Cc1ccc2oc(C(C)(C)c3cccc(S(=O)(=O)/C=C/C#N)c3)nc2c1 [Example 66, (E)-3-{3-[1-Methyl-1-(5-methyl-benzoxazol-2-yl)-ethyl]-benzenesulfonyl}-acrylonitrile; compound with trifluoro-acetic acid] | > 85 | 50 to 85 | 50 to 85 | > 85
7 | CC(C)(C)c1ccc(S/C=C/C#N)cc1 [Example 60, (E)-3-(4-tert-Butyl-phenylsulfanyl)-acrylonitrile] | < 10 | < 10 | < 10 | < 10
8 | COc1cccc(NC(=O)COc2ccc(S(=O)(=O)/C=C/C#N)cc2C(C)(C)C)c1 [Example 65, 2-[2-tert-Butyl-4-((E)-2-cyano-ethenesulfonyl)-phenoxy]-N-(3-methoxy-phenyl)-acetamide] | > 85 | 50 to 85 | 50 to 85 | > 85
9 | CC(C)CNC(=O)C(C)(C)c1ccc(S(=O)(=O)/C=C/C#N)cc1 [Example 8, 2-[4-((E)-2-Cyano-ethenesulfonyl)-phenyl]-N-isobutyl-isobutyramide] | 10 to 50 | 50 to 85 | 50 to 85 | 50 to 85
10 | CC(C)(C(=O)NCC(F)F)c1ccc(S(=O)(=O)/C=C/C#N)cc1 [Example 11, 2-[4-((E)-2-Cyano-ethenesulfonyl)-phenyl]-N-(2,2-difluoro-ethyl)-isobutyramide] | < 10 | 10 to 50 | 10 to 50 | 10 to 50
11 | CC(C)(C(=O)NCc1ccccc1)c1ccc(S(=O)(=O)/C=C/C#N)cc1 [Example 6, N-Benzyl-2-[4-((E)-2-cyano-ethenesulfonyl)-phenyl]-isobutyramide] | < 10 | 50 to 85 | 50 to 85 | > 85
12 | CC(C)(C(=O)O)c1ccc(S(=O)(=O)/C=C/C#N)cc1 [Example 1, 2-[4-((E)-2-Cyano-ethenesulfonyl)-phenyl]-2-methyl-propionic acid] | 10 to 50 | < 10 | 10 to 50 | < 10
13 | CC(C)(C)c1ccc2cc(S(=O)(=O)/C=C/C#N)ccc2n1 [Example 70, (E)-3-(2-tert-Butyl-quinoline-6-sulfonyl)-acrylonitrile] | > 85 | 50 to 85 | 50 to 85 | > 85
14 | CC(C)(C(=O)Nc1ccccc1O)c1ccc(S(=O)(=O)/C=C/C#N)cc1 [Example 73, 2-[4-((E)-2-Cyano-ethenesulfonyl)-phenyl]-N-(2-hydroxy-phenyl)-isobutyramide] | > 85 | 50 to 85 | 10 to 50 | 50 to 85
15 | N#C/C=C/S(=O)(=O)c1ccc(C2(C(=O)O)CC2)cc1 [Example 62, 1-[4-((E)-2-Cyano-ethenesulfonyl)-phenyl]-cyclopropanecarboxylic acid] | < 10 | < 10 | 10 to 50 | 10 to 50
16 | CC(C)(C(=O)NCC#Cc1ccccc1)c1ccc(S(=O)(=O)/C=C/C#N)cc1 [Example 71, 2-[4-((E)-2-Cyano-ethenesulfonyl)-phenyl]-N-(3-phenyl-prop-2-ynyl)-isobutyramide] | > 85 | > 85 | 50 to 85 | > 85
17 | COCCOCc1ccc(NC(=O)C(C)(C)c2ccc(S(=O)(=O)/C=C/C#N)cc2)cc1 [Example 31, 2-[4-((E)-2-Cyano-ethenesulfonyl)-phenyl]-N-[4-(2-methoxy-ethoxymethyl)-phenyl]-isobutyramide] | 50 to 85 | 50 to 85 | 10 to 50 | 
18 | CC(C)(c1ccc(S(=O)(=O)/C=C/C#N)cc1)c1nnc(C2CCCCC2)o1 [Example 53, (E)-3-{4-[1-(5-Cyclohexyl-[1,3,4]oxadiazol-2-yl)-1-methyl-ethyl]-benzenesulfonyl}-acrylonitrile] | > 85 | > 85 | 50 to 85 | 
19 | CC(C)(c1ccc(S(=O)(=O)/C=C/C#N)cc1)c1nc2ccccc2o1 [Example 78, (E)-3-[4-(1-Benzoxazol-2-yl-1-methyl-ethyl)-benzenesulfonyl]-acrylonitrile] | > 85 | 50 to 85 | 50 to 85 | > 85
20 | Cc1ccc(O)c(NC(=O)C(C)(C)c2ccc(S(=O)(=O)/C=C/C#N)cc2)c1 [Example 69, 2-[4-((E)-2-Cyano-ethenesulfonyl)-phenyl]-N-(2-hydroxy-5-methyl-phenyl)-isobutyramide] | 50 to 85 | 10 to 50 | 10 to 50 | 50 to 85
21 | CC(C)(C(=O)NCC1CC1)c1ccc(S(=O)(=O)/C=C/C#N)cc1 [Example 10] | < 10 | 10 to 50 | 10 to 50 | 50 to 85
22 | CC(C)(C(=O)Nc1cccc(OCC(=O)O)c1)c1ccc(S(=O)(=O)/C=C/C#N)cc1 [Example 43, (3-{2-[4-((E)-2-Cyano-ethenesulfonyl)-phenyl]-2-methyl-propionylamino}-phenoxy)-acetic acid] | < 10 | < 10 | < 10 | 
23 | CC(C)(C(=O)N1CCCCC1)c1ccc(S(=O)(=O)/C=C/C#N)cc1 [Example 28, (E)-3-[4-(1,1-Dimethyl-2-oxo-2-piperidin-1-yl-ethyl)-benzenesulfonyl]-acrylonitrile] | > 85 | 50 to 85 | 10 to 50 | 
24 | CC(C)(C(=O)N[C@H]1CCCCNC1=O)c1ccc(S(=O)(=O)/C=C/C#N)cc1 [Example 30, 2-[4-((E)-2-Cyano-ethenesulfonyl)-phenyl]-N—((S)-2-oxo-azepan-3-yl)-isobutyramide] | 50 to 85 | < 10 | < 10 | 
25 | CC(C)(C(=O)N[C@H](CO)c1ccccc1)c1ccc(S(=O)(=O)/C=C/C#N)cc1 [Example 29, 2-[4-((E)-2-Cyano-ethenesulfonyl)-phenyl]-N—((S)-2-hydroxy-1-phenyl-ethyl)-isobutyramide] | 50 to 85 | < 10 | < 10 | 
26 | COc1ccccc1CNC(=O)C(C)(C)c1ccc(S(=O)(=O)/C=C/C#N)cc1 [Example 45, 2-[4-((E)-2-Cyano-ethenesulfonyl)-phenyl]-N-(2-methoxy-benzyl)-isobutyramide] | > 85 | > 85 | 50 to 85 | 
